Reference: ChEMBL document CHEMBL2434887, “Synthesis and biological evaluation of a new series of N-ylides as protein farnesyltransferase inhibitors” (Bioorg Med Chem Lett, 2013)
pIC50: −log10 of the molar value.

Experiments:
[1] = molecular target: T1, Protein farnesyltransferase (Homo sapiens, UniProt P49354+P49356); experiment: Inhibition of recombinant human farnesyltransferase using Dansyl-GCVLS as substrate at 100 uM measured for 15 mins by fluorimetric analysis relative to control; format: protein-complex assay
[2] = molecular target: T1, Protein farnesyltransferase; experiment: Inhibition of recombinant human farnesyltransferase using Dansyl-GCVLS as substrate measured for 15 mins by fluorimetric analysis; format: protein-complex assay

Compound | inhibition [1] | pIC50 [2]
COc1cc[n+]([C-](C=C(C#N)C#N)C(=O)c2ccc(OC)c(OC)c2)cc1 | 77% | 4.50
CCOC(=O)/C(C#N)=C/[C-](C(=O)c1ccc(F)cc1)[n+]1ccc(N(C)C)cc1 | 64% | 4.21
CCOC(=O)/C(C#N)=C/[C-](C(=O)c1ccc(Br)cc1)[n+]1ccc(N(C)C)cc1 | 100% | 4.44
CN(C)c1cc[n+]([C-](C=C(C#N)C#N)C(=O)c2ccc(F)cc2)cc1 | 81% | 4.63
CCOC(=O)/C(C#N)=C/[C-](C(=O)c1ccccc1)[n+]1ccc(C)cc1 | 45% | –
COc1ccc(C(=O)[C-](C=C(C#N)C#N)[n+]2cc(C)cc(C)c2)cc1 | 75% | 4.56
CN(C)c1cc[n+]([C-](C=C(C#N)C#N)C(=O)c2ccc([N+](=O)[O-])cc2)cc1 | 88% | 4.55
CCOC(=O)/C(C#N)=C/[C-](C(=O)c1cc(OC)c(OC)c(OC)c1)[n+]1cc(C)cc(C)c1 | 90% | 4.36
CCOC(=O)/C(C#N)=C/[C-](C(=O)c1ccc(C#N)cc1)[n+]1ccc(N(C)C)cc1 | 69% | 4.34
COc1cc(C(=O)[C-](C=C(C#N)C#N)[n+]2ccc(N(C)C)cc2)cc(OC)c1OC | 93% | 4.81
Cc1ccc(C(=O)[C-](C=C(C#N)C#N)[n+]2ccc(N(C)C)cc2)cc1 | 89% | 4.84
CCOC(=O)/C(C#N)=C/[C-](C(=O)c1ccc(C)cc1)[n+]1ccc(N(C)C)cc1 | 65% | 4.36
COc1cc(C(=O)[C-](C=C(C#N)C#N)[n+]2cc(C)cc(C)c2)cc(OC)c1OC | 82% | 4.70
Cc1cc[n+]([C-](C=C(C#N)C#N)C(=O)c2ccccc2)cc1 | 29% | –
CCOC(=O)/C(C#N)=C/[C-](C(=O)c1ccc(OC)cc1)[n+]1cc(C)cc(C)c1 | 49% | –
CN(C)c1cc[n+]([C-](C=C(C#N)C#N)C(=O)c2ccc(C#N)cc2)cc1 | 77% | 4.62

Now from value to compound:

inhibition [1] | pIC50 [2] | Compound
91% | 4.71 | CN(C)c1cc[n+]([C-](C=C(C#N)C#N)C(=O)c2ccc(Br)cc2)cc1
83% | 4.56 | COc1ccc(C(=O)[C-](C=C(C#N)C#N)[n+]2ccc(OC)cc2)cc1
79% | 4.34 | CN(C)c1cc[n+]([C-](C=C(C#N)C#N)C(=O)c2ccccc2)cc1
92% | 4.59 | CN(C)c1cc[n+]([C-](C=C(C#N)C#N)C(=O)c2ccc3c(c2)NC(=O)CO3)cc1
95% | 4.90 | CN(C)c1cc[n+]([C-](C=C(C#N)C#N)C(=O)c2ccc(Cl)cc2)cc1
99% | 4.65 | COc1ccc(C(=O)[C-](C=C(C#N)C#N)[n+]2ccc(N(C)C)cc2)cc1
73% | 4.32 | CCOC(=O)/C(C#N)=C/[C-](C(=O)c1cc(OC)c(OC)c(OC)c1)[n+]1ccc(N(C)C)cc1
– | 5.33 | CN(C)c1cc[n+]([C-](C=C(C#N)C#N)C(=O)N2c3ccccc3Sc3ccccc32)cc1
100% | 4.50 | CCOC(=O)/C(C#N)=C/[C-](C(=O)c1ccc(Cl)cc1)[n+]1ccc(N(C)C)cc1
68% | 4.51 | CCOC(=O)/C(C#N)=C/[C-](C(=O)c1ccccc1)[n+]1ccc(N(C)C)cc1
62% | 4.26 | CCOC(=O)/C(C#N)=C/[C-](C(=O)c1ccc2c(c1)NC(=O)CO2)[n+]1ccc(N(C)C)cc1
64% | 4.20 | CCOC(=O)/C(C#N)=C/[C-](C(=O)c1ccc(OC)cc1)[n+]1ccc(N(C)C)cc1
88% | 4.68 | CCOC(=O)/C(C#N)=C/[C-](C(=O)c1ccc(OC)c(OC)c1)[n+]1ccc(OC)cc1
51% | – | CCOC(=O)/C(C#N)=C/[C-](C(=O)c1ccc(OC)cc1)[n+]1ccc(OC)cc1
